Laboratory results as given in patent US9617242B2, “Histone demethylase inhibitors” (priority 2012, dated 2017).
Structures can show the parent of a compound that is named as a salt. Where two headings read alike, the source gives them in different places.

Experiments:
Jarid1A = Jarid1A (Homo sapiens (Human), UniProt P29375); assay: Jarid1A in vitro enzyme inhibition assay (TR-FRET); type: biochemical
Jarid1B = Jarid1B (Homo sapiens (Human), UniProt Q9UGL1); assay: Jarid1B in vitro enzyme inhibition assay (TR-FRET); type: biochemical
Sequence of Jarid1B (Q9UGL1 2-751): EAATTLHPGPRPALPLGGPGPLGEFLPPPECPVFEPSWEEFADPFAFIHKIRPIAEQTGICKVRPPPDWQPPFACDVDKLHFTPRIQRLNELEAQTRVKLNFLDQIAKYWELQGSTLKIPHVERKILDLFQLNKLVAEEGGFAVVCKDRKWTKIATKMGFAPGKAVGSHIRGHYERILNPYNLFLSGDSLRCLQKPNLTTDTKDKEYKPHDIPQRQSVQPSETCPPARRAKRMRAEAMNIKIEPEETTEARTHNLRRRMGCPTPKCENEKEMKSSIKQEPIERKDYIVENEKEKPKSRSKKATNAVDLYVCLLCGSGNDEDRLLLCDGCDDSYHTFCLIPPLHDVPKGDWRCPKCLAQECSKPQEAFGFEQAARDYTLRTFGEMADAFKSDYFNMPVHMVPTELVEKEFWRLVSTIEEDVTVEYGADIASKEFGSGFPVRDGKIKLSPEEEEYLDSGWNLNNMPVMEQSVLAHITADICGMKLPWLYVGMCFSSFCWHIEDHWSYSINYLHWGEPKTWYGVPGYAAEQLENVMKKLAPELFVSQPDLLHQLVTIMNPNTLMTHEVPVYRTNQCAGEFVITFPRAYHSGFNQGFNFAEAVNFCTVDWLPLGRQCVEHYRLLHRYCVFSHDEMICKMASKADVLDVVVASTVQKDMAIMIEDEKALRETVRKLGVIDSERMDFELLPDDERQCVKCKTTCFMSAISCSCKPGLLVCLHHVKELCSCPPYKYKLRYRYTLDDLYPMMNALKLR

KDM5A/B = assay: In vitro cell-based assay: tri-methyl H3K4 immuno-blotting in ZR-75-1 breast cancer cells
Protocol: This quantitative immuno-blotting assay measures the amount tri-methylated histone H3 at amino acid Lysine number 4, a specific substrate […] of the direct enzymatic activity of the histone demethylases KDM5A and KDM5B from extracts of the ZR-75-1 breast cancer cell line.
This assay is a fluorometric immunoassay for the quantification of tri-methyl H3K4 extracted from cells treated with test compound and is used as a measure of the cellular inhibition of KDM5A/B.
Extracts were prepared containing all of the cellular histone material using detergent based lysis and sonication methods. These lysates were subsequently normalized for total protein content using a colorimetric bicinchonic acid assay (MicroBCA Pierce/Thermo Scientific). Normalized cell extracts were then subjected to typical immuno-blotting procedures using NuPage reagents (Life Technologies). Electrophoretically separated histones were then transferred and immobilized using polyvinylidene difluoride membrane (Immobilon-FL Millipore). The amount of tri-methylated lysine 4 of histone H3 was detected using an antibody specific to the tri-methylated state (Cell Signaling Technologies) and quantified on an infrared imager using a densitometry software package (Odyssey CLx, Image Studio, Li-Cor). This background subtracted densitometry value was reported as a ration of the GAPDH amount for that sample and then calculated as a percent of the DMSO treated sample. The software package XL-fit (IDBS) was then used to calculate a relative IC50 value for the dilution series of a given test compound according to the equation: fit=(D+((Vmax*(x^n))/((x^n)+(Km^n)))).

[1] = 72 hours, read-out: Cellular IC50
[2] = read-out: Cellular IC50, 72 hours

Sequence of Jarid1A (P29375 1-1090): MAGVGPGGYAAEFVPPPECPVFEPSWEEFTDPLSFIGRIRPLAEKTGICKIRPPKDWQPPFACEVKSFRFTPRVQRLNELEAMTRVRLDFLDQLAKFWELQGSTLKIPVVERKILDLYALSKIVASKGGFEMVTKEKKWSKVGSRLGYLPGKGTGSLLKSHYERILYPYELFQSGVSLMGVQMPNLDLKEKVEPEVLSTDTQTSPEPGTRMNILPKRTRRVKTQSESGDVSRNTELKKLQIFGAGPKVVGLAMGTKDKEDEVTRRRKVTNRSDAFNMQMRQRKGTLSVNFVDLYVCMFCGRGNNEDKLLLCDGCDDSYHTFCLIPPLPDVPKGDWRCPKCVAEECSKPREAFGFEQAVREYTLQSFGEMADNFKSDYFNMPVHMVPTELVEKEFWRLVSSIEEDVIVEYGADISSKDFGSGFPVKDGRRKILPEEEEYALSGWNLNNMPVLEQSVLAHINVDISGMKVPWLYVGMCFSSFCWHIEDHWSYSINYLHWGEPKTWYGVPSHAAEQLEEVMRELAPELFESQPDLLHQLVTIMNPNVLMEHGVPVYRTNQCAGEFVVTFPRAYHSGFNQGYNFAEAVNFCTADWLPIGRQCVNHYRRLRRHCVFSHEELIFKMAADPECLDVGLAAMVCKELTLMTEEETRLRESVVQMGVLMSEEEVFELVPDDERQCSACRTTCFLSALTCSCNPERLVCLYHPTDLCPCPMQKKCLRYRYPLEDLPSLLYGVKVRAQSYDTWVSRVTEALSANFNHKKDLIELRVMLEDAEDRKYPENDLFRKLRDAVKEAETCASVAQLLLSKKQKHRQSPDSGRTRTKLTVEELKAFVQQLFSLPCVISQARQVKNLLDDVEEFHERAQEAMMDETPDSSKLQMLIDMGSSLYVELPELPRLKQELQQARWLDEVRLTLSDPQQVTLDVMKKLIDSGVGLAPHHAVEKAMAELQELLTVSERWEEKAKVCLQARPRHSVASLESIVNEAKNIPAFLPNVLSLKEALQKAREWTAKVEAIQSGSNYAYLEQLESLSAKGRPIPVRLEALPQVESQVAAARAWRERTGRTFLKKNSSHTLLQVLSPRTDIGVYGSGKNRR

Row | SMILES | IC50 (Jarid1A) [nM] | IC50 (Jarid1B) [nM] | IC50 (KDM5A/B; [1]) [nM] | IC50 (KDM5A/B; [2]) [nM]
1 | O=C(O)c1ccncc1Nc1cn(C2CCOC2)c2ccc(F)cc12 (centres unmarked) [Example 68, 3-{[5-fluoro-1-(tetrahydrofuran-3-yl)-1H-indol-3-yl]amino}pyridine-4-carboxylic acid] | < 100 | < 100 |  | 
2 | Cc1ccc2c(c1)c(Nc1cnccc1C(=O)O)nn2C [Example 12, 3-[(1,5-dimethyl-1H-indazol-3-yl)amino]pyridine-4-carboxylic acid] |  |  | 100 to 1000 | 
3 | CCCn1cc(Nc2cnccc2C(=O)O)c2cc(F)ccc21 [Example 57, 3-[(5-fluoro-1-propyl-1H-indol-3-yl)amino]pyridine-4-carboxylic acid] | < 100 | < 100 |  | 
4 | O=C(O)c1ccncc1Nc1nn([C@H]2CCNC2)c2ccc(F)cc12 [Example 60, 3-({5-fluoro-1-[(3S)-pyrrolidin-3-yl]-1H-indazol-3-yl}amino)pyridine-4-carboxylic acid] |  |  | 1000 to 10000 | 
5 | CCCn1nc(Nc2cnccc2C(=O)O)c2cc(F)ccc21 [Example 15, 3-[(5-fluoro-1-propyl-1H-indazol-3-yl)amino]pyridine-4-carboxylic acid] | < 100 | < 100 | 1000 to 10000 | 
6 | N#CNC(=O)c1ccncc1Nc1nn(CCN2CCC(F)(F)C2)c2ccc(F)cc12 [Example 72, N-cyano-3-({1-[2-(3,3-difluoropyrrolidin-1yl)ethyl]-5-fluoro-1H-indazol-3-yl}amino)pyridine-4-carboxamide] | < 100 | < 100 |  | 
7 | Cn1nc(Nc2cnccc2C(=O)O)c2ccc(F)cc21 [Example 6, 3-[(6-fluoro-1-methyl-1H-indazol-3-yl)amino]pyridine-4-carboxylic acid] |  |  | 1000 to 10000 | 
8 | O=C(O)c1ccncc1Nc1nn(CCC(F)(F)F)c2ccc(Cl)cc12 [Example 35, 3-{[5-chloro-1-(3,3,3-trifluoropropyl)-1H-indazol-3-yl]amino}pyridine-4-carboxylic acid] | < 100 | < 100 | 100 to 1000 | 
9 | Cc1ccc2c(Nc3cnccc3C(=O)O)nn(C)c2c1 [Example 5, 3-[(1,6-dimethyl-1H-indazol-3-yl)amino]pyridine-4-carboxylic acid] | < 100 | < 100 | 1000 to 10000 | 
10 | N#CNC(=O)c1ccncc1Nc1nn(CCN2CCCC2)c2ccc(Cl)cc12 [Example 79, N-cyano-3-({5-chloro-1-[2-(pyrrolidin-1-yl)ethyl]-1H-indazol-3-yl}amino)pyridine-4-carboxamide] | < 100 | < 100 |  | 
11 | CN(C)CC#CCn1nc(Nc2cnccc2C(=O)O)c2cc(F)ccc21 [Example 49, 3-({1-[4-(dimethylamino)but-2-yn-1-yl]-5-fluoro-1H-indazol-3-yl}amino)pyridine-4-carboxylic acid, trifluoroacetic acid salt] |  |  |  | > 10000
12 | Cc1ccc2c(c1)c(Nc1cnccc1C(=O)O)nn2CC1CC1 [Example 37, 3-{[1-(cyclopropylmethyl)-5-methyl-1H-indazol-3-yl]amino}pyridine-4-carboxylic acid] | < 100 | < 100 | 100 to 1000 | 
13 | O=C(O)c1ccncc1Nc1nn(CC2CCC2)c2ccc(F)cc12 [Example 28, 3-{[1-(cyclobutylmethyl)-5-fluoro-1H-indazol-3-yl]amino}pyridine-4-carboxylic acid] | < 100 | < 100 | 100 to 1000 | 
14 | O=C(O)c1ccncc1Nc1nn([C@@H]2CCNC2)c2ccc(F)cc12 [Example 61, 3-({5-fluoro-1-[(3R)-pyrrolidin-3-yl]-1H-indazol-3-yl}amino)pyridine-4-carboxylic] |  |  | 1000 to 10000 | 
15 | O=C(O)c1ccncc1Nc1nn(C2CCCC2)c2ccc(F)cc12 [Example 29, 3-[(1-cyclopentyl-5-fluoro-1H-indazol-3-yl)amino]pyridine-4-carboxylic acid] | < 100 | < 100 | 100 to 1000 | 
16 | O=C(O)c1ccncc1Nc1nn(C2CCOCC2)c2ccc(F)cc12 [Example 62, 3-{[5-fluoro-1-(tetrahydro-2H-pyran-4-yl)-1H-indazol-3-yl]amino}pyridine-4-carboxylic acid] | < 100 | < 100 |  | 
17 | CNCCCCCn1nc(Nc2cnccc2C(=O)O)c2cc(F)ccc21 [Example 46, 3-({5-fluoro-1-[5-(methylamino)pentyl]-1H-indazol-3-yl}amino)pyridine-4-carboxylic acid, trifluoroacetic acid salt] |  |  |  | > 10000
18 | Cc1ccc2c(c1)c(Nc1cnccc1C(=O)O)nn2CCC(F)(F)F [Example 39, 3-{[5-methyl-1-(3,3,3-trifluoropropyl)-1H-indazol-3-yl]amino}pyridine-4-carboxylic acid] | < 100 | < 100 |  | 
19 | CCCn1nc(Nc2cnccc2C(=O)O)c2cc(C)ccc21 [Example 38, 3-[(5-methyl-1-propyl-1H-indazol-3-yl)amino]pyridine-4-carboxylic acid] | < 100 | < 100 |  | 
20 | O=C(O)c1ccncc1Nc1nn(C2CCCOC2)c2ccc(F)cc12 (centres unmarked) [Example 63, 3-{[5-fluoro-1-(tetrahydro-2H-pyran-3-yl)-1H-indazol-3-yl]amino}pyridine-4-carboxylic acid] | < 100 | < 100 |  | 
21 | CCn1nc(Nc2cnccc2C(=O)O)c2cc(C)ccc21 [Example 36, 3-[(1-ethyl-5-methyl-1H-indazol-3-yl)amino]pyridine-4-carboxylic acid] | < 100 | < 100 |  | 
22 | CC(C)Cn1nc(Nc2cnccc2C(=O)NC#N)c2cc(F)ccc21 [Example 75, N-cyano-3-{[5-fluoro-1-(2-methylpropyl)-1H-indazol-3-yl]amino}pyridine-4-carboxamide] | < 100 | < 100 |  | 
23 | N#CNC(=O)c1ccncc1Nc1nn(CCN2CCC(F)(F)CC2)c2ccc(F)cc12 [Example 74, N-cyano-3-({1-[2-(4,4-difluoropiperidin-1yl)ethyl]-5-fluoro-1H-indazol-3-yl}amino)pyridine-4-carboxamide] | < 100 | < 100 |  | 

Now from value to compound, other results behind:

Row | IC50 (Jarid1A) [nM] | IC50 (Jarid1B) [nM] | IC50 (KDM5A/B; [1]) [nM] | SMILES | IC50 (KDM5A/B; [2]) [nM]
24 | < 100 | < 100 |  | N#CNC(=O)c1ccncc1Nc1nn([C@H]2CCOC2)c2ccc(F)cc12 [Example 70, N-cyano-3-({5-fluoro-1-[(3S)-tetrahydrofuran-3-yl]-1H-indazol-3-yl}amino)pyridine-4-carboxamide] | 
25 | < 100 | < 100 | 100 to 1000 | CCCn1nc(Nc2cnccc2C(=O)O)c2cc(Cl)ccc21 [Example 33, 3-[(5-chloro-1-propyl-1H-indazol-3-yl)amino]pyridine-4-carboxylic acid] | 
26 | < 100 | < 100 | 1000 to 10000 | COCCn1nc(Nc2cnccc2C(=O)O)c2ccccc21 [Example 10, 3-{[1-(2-methoxyethyl)-1H-indazol-3-yl]amino}pyridine-4-carboxylic acid] | 
27 | < 100 | < 100 | 1000 to 10000 | CC(C)Cn1nc(Nc2cnccc2C(=O)O)c2cc(F)ccc21 [Example 25, 3-{[5-fluoro-1-(2-methylpropyl)-1H-indazol-3-yl]amino}pyridine-4-carboxylic acid] | 
28 | < 100 | < 100 | 1000 to 10000 | O=C(O)c1ccncc1Nc1nn(CC2CC2)c2ccc(F)cc12 [Example 16, 3-{[1-(cyclopropylmethyl)-5-fluoro-1H-indazol-3-yl]amino}pyridine-4-carboxylic acid] | 
29 | < 100 | < 100 | 1000 to 10000 | O=C(O)c1ccncc1Nc1cn(CCC(F)(F)F)c2ccc(Cl)cc12 [Example 59, 3-{[5-chloro-1-(3,3,3-trifluoropropyl)-1H-indol-3-yl]amino}pyridine-4-carboxylic acid] | 
30 | < 100 | < 100 | 1000 to 10000 | O=C(O)c1ccncc1Nc1nn(C2CCOC2)c2ccc(Cl)cc12 (centres unmarked) [Example 69, 3-{[5-chloro-1-(tetrahydrofuran-3-yl)-1H-indazol-3-yl]amino}pyridine-4-carboxylic acid] | 
31 | < 100 | < 100 | > 10000 | O=C(O)c1ccncc1Nc1nn(CCc2ccccc2)c2ccc(F)cc12 [Example 19, 3-{[5-fluoro-1-(2-phenethyl)-1H-indazol-3-yl]amino}pyridine-4-carboxylic acid] | 
32 | < 100 | < 100 | 1000 to 10000 | O=C(O)c1ccncc1Nc1nn(CC(F)(F)F)c2ccc(F)cc12 [Example 23, 3-{[5-fluoro-1-(2,2,2-trifluoroethyl)-1H-indazol-3-yl]amino}pyridine-4-carboxylic acid] | 
33 | < 100 | < 100 | 1000 to 10000 | CCCCCn1nc(Nc2cnccc2C(=O)O)c2cc(F)ccc21 [Example 18, 3-[(5-fluoro-1-pentyl-1H-indazol-3-yl)amino]pyridine-4-carboxylic acid] | 
34 | < 100 | < 100 |  | CN(C)CCCCn1nc(Nc2cnccc2C(=O)NC#N)c2cc(F)ccc21 [Example 76, N-cyano-3-({1-[4-(dimethylamino)butyl]-5-fluoro-1H-indazol-3-yl}amino)pyridine-4-carboxamide] | 
